What is called EC50 is the midpoint of the concentration-response curve.

The structures appear in SMILES notation. A value given as a limit tells only on which side of the number the result lay.

The target in this assay is T1, TDO2 (Homo sapiens, UniProt P48775).
T1 construct: decreased levels of NFK in SW48 cells (high TDO expressing cells)
T1 sequence (P48775 whole entry): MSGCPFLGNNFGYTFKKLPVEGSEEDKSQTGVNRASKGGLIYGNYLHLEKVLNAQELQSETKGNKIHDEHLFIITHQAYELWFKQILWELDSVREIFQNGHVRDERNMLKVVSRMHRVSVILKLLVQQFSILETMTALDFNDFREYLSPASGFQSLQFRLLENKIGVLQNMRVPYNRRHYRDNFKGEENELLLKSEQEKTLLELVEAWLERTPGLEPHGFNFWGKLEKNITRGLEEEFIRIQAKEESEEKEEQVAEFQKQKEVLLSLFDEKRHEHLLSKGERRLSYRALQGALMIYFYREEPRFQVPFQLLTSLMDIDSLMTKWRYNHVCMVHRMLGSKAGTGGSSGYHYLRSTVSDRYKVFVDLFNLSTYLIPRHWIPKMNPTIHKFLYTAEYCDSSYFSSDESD
In words: TDO2 cell assay (NFK GreenScreen, SW48 cells). The format is cell-based. Particulars: SW48 cells (high TDO expressing), 200 uM tryptophan, 24 hours; Table 3; read-out: TDO2 Cell Fluor EC50.
Protocol: The NFK GreenScreen™ (NTRC, Netherlands) uses a specific chemical probe that binds to N-Formylkynurenine (NFK), a product of tryptophan catabolism facilitated by IDO or TDO and causes fluorescence at 510 nm when excited at 410 nm. […] The assay is multiplexed with Cell Titer-Glo® (Promega) to determine if compounds are cytotoxic. […] Cells are counted on a Vi-Cell (Beckman Coulter). SW48 cells are diluted to 1×10^6 cells/ml in assay media. A172 cells are diluted to 0.24×10^6 cells/ml in assay media. […] 5 ul of assay media containing 1.2 mM tryptophan are added to the SW48 cells for a final concentration of 200 uM tryptophan in each well. 5 ul of assay media containing 600 uM tryptophan and 600 ng/ml IFNγ are added to the A172 cells for a final concentration of 100 uM tryptophan and 100 ng/ml IFNγ in each well. The final DMSO concentration is 0.5%. Cell plates are placed at room temperature in a closed TC hood with the blower off to allow cells to settle for approximately 30 min. Plates are then moved to an incubator set at 37° C., 5% CO2 for 24 hours. After the 24 hour compound incubation, 8 ul of NFK green reagent is added to each well with a Multidrop™ Combi dispenser (Thermo Scientific). Plates are sealed and incubated at 37° C., 5% CO2 for 5 hours, then read on a PHERAstar® (BMG labtech). Data are analyzed by normalizing to DMSO and high inhibitor controls. After the plates have been read for NFK green, 25 ul of Cell Titer-Glo® (Promega) are added to each well, incubated for 15 minutes at room temperature, and read on the Envision (Perkin Elmer). Cell Titer-Glo data are analyzed by normalizing to the DMSO controls. Four-parameter curve fitting is used and EC50 data are reported.
Consider `N#Cc1cnc2c(c1)CCC(C1c3ccccc3-c3cncn31)C2O` (single isomer, unassigned) [Example 107e], for which the EC50 was 23 µM.

In the case of `OC1c2cnccc2CC1C1c2ccccc2-c2cncn21` (single isomer, unassigned) [Example 71b], the EC50 worked out at 0.63 µM.

In the case of `NC(=O)C1([C@H](O)[C@@H]2c3ccccc3-c3cncn32)CC1` [Example 165d, 1-((S)-hydroxy ((S)-5H-imidazo[5,1-a]isoindol-5-yl)methyl)cyclopropane-1-carboxamide], the EC50 is greater than 25 µM.

In the case of `CC(O)(c1ncc[nH]1)C1c2ccccc2-c2cncn21` (single isomer, unassigned) [Example 143b], the EC50 is greater than 25 µM.

On to `Nc1ncc2c(n1)CCC(C1c3ccccc3-c3cncn31)C2O` (single isomer, unassigned) [Example 111a], for which the EC50 was determined as 0.54 µM.

In the case of `OC1COCCC1C1c2ccc(F)cc2-c2cncn21` (single isomer, unassigned) [Example 33d], the EC50 is greater than 25 µM.

For `OC1c2cnccc2CCC1C1c2ccccc2-c2cncn21` (single isomer, unassigned) [Example 04c], the EC50 was 1 µM.

In the case of `NS(=O)(=O)c1ccc2c(c1)CCC(C1c3ccccc3-c3cncn31)C2O` (single isomer, unassigned) [Example 100f], the EC50 worked out at 15 µM.

With `C[C@@H](O)[C@@H]1c2ccccc2-c2cncn21` [Example 42a, (R)-1-((S)-5H-imidazo[5,1-a]isoindol-5-yl)ethan-1-ol], the EC50 is greater than 25 µM.

As for `OC1C(C2c3ccc(F)cc3-c3cncn32)CC12CCOCC2` (single isomer, unassigned) [Example 109b], the EC50 stood at 3.9 µM.

Take `Cn1cc2c(n1)CCC(C1c3ccccc3-c3cncn31)C2O` (single isomer, unassigned) [Example 130b]: the EC50 was 0.65 µM.

Regarding `N#Cc1cnn2c1C(O)C(C1c3ccccc3-c3cncn31)CC2` (single isomer, unassigned) [Example 156a], the EC50 is greater than 25 µM.

As to `OC1CC2(COC2)C1C1c2ccccc2-c2cncn21` (single isomer, unassigned) [Example 87f], the EC50 was 17 µM.

Take `OC1(C2c3ccccc3-c3cncn32)CC(CF)(CF)C1` (racemic) [Example 54, 3,3-bis(fluoromethyl)-1-(5H-imidazo[5,1-a]isoindol-5-yl)cyclobutan-1-ol]: the EC50 turned out to be 3.4 µM.

Regarding `CCC(O)C1c2ccccc2-c2cncn21` (single isomer, unassigned) [Example 137c], the EC50 was 0.2 µM.

On to `NS(=O)(=O)N1CCC2(CCC(C3c4ccccc4-c4cncn43)C2O)CC1` (single isomer, unassigned) [Example 182c], for which the EC50 was found to be 4.6 µM.

In the case of `CN(C)C(=O)c1ccc2c(c1)CCC(C1c3ccccc3-c3cncn31)C2O` (single isomer, unassigned) [Example 98b], the EC50 was 8.7 µM.

`CC(C)(C)OC(=O)N1CC[C@@H](O)[C@H]([C@H]2c3ccccc3-c3cncn32)C1` [Example 11a, (3S,4R)-tert-butyl 4-hydroxy-3-((S)-5H-imidazo[5,1-a]isoindol-5-yl)piperidine-1-carboxylate]: the EC50 was 15 µM.

`CC(=O)N1CC[C@@H](O)[C@H]([C@@H]2c3ccccc3-c3cncn32)C1` (single isomer, unassigned) [Example 12d]: the EC50 is greater than 25 µM.

As to `OC1CCC(F)(F)CC1C1c2ccccc2-c2cncn21` (single isomer, unassigned) [Example 18d, 4,4-difluoro-2-(5H-imidazo[5,1-a]isoindol-5-yl)cyclohexan-1-ol], the EC50 was found to be 8 µM.

Take `O[C@@H]1CC(CF)(CF)[C@@H]1[C@H]1c2ccccc2-c2cncn21` [Example 150a, (1R,2R)-3,3-bis(fluoromethyl)-2-((S)-5H-imidazo[5,1-a]isoindol-5-yl)cyclobutan-1-ol]: the half-maximal effective concentration (EC50) is 12 µM.

As for `N#CCN1CC[C@@H]([C@H]2c3ccccc3-c3cncn32)[C@H](O)C1` (single isomer, unassigned) [Example 27a], the EC50 is greater than 25 µM.

As to `N#CCN1CCC(O)C(C2c3ccccc3-c3cncn32)C1` (single isomer, unassigned) [Example 14a], the EC50 came out at 0.36 µM.

On to `CS(=O)(=O)N1CCC(O)C(C2c3ccc(F)cc3-c3cncn32)C1` (single isomer, unassigned) [Example 118a], for which the EC50 is greater than 25 µM.

`NS(=O)(=O)c1ccc2c(c1)C(O)C(C1c3ccccc3-c3cncn31)CC2` (single isomer, unassigned) [Example 105a]: the EC50 was 12 µM.

For the compound `CC1(C)OCC(C2c3ccccc3-c3cncn32)C1O` (single isomer, unassigned) [Example 85a], the EC50 is 24 µM.

Regarding `N#CCN1CC[C@H]([C@H]2c3ccccc3-c3cncn32)[C@@H](O)C1` [Example 27c, 2-((3R,4R)-3-hydroxy-4-((S)-5H-imidazo[5,1-a]isoindol-5-yl)piperidin-1-yl)acetonitrile], the EC50 was greater than 25 µM.

In the case of `O[C@@H]1CCC[C@@H]1[C@@H]1c2ccccc2-c2cncn21` [Example 02a, (1R,2R)-2-((R)-5H-imidazo[5,1-a]isoindol-5-yl)cyclopentan-1-ol], the EC50 was 12 µM.

Consider `OC1CCCCC1C1c2ccc(F)cc2-c2cncn21` (single isomer, unassigned) [Example 25d], for which the EC50 is 0.048 µM.

Take `N#CCN1CC[C@@H]([C@@H]2c3ccccc3-c3cncn32)[C@H](O)C1` (single isomer, unassigned) [Example 27d]: the EC50 was found to be 3 µM.

Consider `NS(=O)(=O)N1CC[C@@H]([C@@H]2c3ccccc3-c3cncn32)[C@H](O)C1` (single isomer, unassigned) [Example 39c], for which the EC50 is greater than 25 µM.

`NC(=O)c1ccc2c(n1)CCC(C1c3ccccc3-c3cncn31)C2O` (single isomer, unassigned) [Example 104e]: the EC50 amounted to 3.4 µM.

With `O[C@H]1c2ccnn2CC[C@H]1[C@H]1c2ccccc2-c2cncn21` [Example 56e, (4R,5S)-5-((S)-5H-imidazo[5,1-a]isoindol-5-yl)-4,5,6,7-tetrahydropyrazolo[1,5-a]pyridin-4-ol], the EC50 was determined as 0.76 µM.

In the case of `CN(C)C(=O)c1ccc2c(c1)CCC(C1c3ccccc3-c3cncn31)C2O` (single isomer, unassigned) [Example 98f], the EC50 came out at 2.5 µM.

As for `OC1c2cnccc2CC1C1c2ccccc2-c2cncn21` (single isomer, unassigned) [Example 71c], the EC50 was greater than 25 µM.

As for `OC1c2nonc2CCC1C1c2ccccc2-c2cncn21` (single isomer, unassigned) [Example 163c], the 50% effective concentration (EC50) is 15 µM.

As to `Cc1ccc2c(c1)C(C1COCC1O)n1cncc1-2` (single isomer, unassigned) [Example 110d], the EC50 was greater than 25 µM.

In the case of `O[C@@H]1CC2(COC2)[C@H]1[C@@H]1c2ccccc2-c2cncn21` [Example 87b, (5S,6R)-5-((R)-5H-imidazo[5,1-a]isoindol-5-yl)-2-oxaspiro[3.3]heptan-6-ol], the EC50 was found to be 0.3 µM.

`Cn1cc2c(n1)CCC(C1c3ccccc3-c3cncn31)C2O` (single isomer, unassigned) [Example 130a]: the EC50 was found to be 1.5 µM.

For `CC[C@H](O)[C@@H]1c2ccccc2-c2cncn21` [Example 137b, (S)-1-((S)-5H-imidazo[5,1-a]isoindol-5-yl)propan-1-ol], the concentration giving a half-maximal response (EC50) came to 7.9 µM.
